Experiments:
[1] = test system: MC3T3-E1, mouse osteoblast-like cells; experiment: ET-1-induced increase of intracellular Ca2+ concentration in MC3T3-E1; format: cell-based
Method: (§1) MC3T3-E1, mouse osteoblast-like cells, was used in these experiments (Journal of Cell Biology,96(1),191-198,1983).
The cell was cultured in a cell disk (of a 13.5-mm diameter) until the cell reached confluency; thereafter, the cell was then cultured in the absence of serum, for about 12 hours or longer and used for this experiment. Fura2-AM (4 μM) was added to the cell in the Hank's balanced salt solution (HBSS) (140 mM NaCl, 4 MM KCl, 1 mM K2HPO4, 1 mM MgCl2, 1 mM CaCl2, 10 mM glucose and 20 mM Hepes, pH-7.4) and incubated at 37° C. for one hour. The cell disk was fixed in a quartz cell placing therein HBSS; the quartz cell was fixed in an intracellular Ca^2+ assay unit (CAF-110). […] Intracellular Ca^2+ concentration was estimated by measuring and detecting the ratio of fluorescence intensities at 500 nm with excitation wave lengths of 340/380 nm and calculating intracellular Ca^2+ concentration using designated formula (J.Biol.Chem.,260,3440-3450,1985). […]
(§2) The results are shown in the form of mean±standard error. The significant difference between groups was analyzed by one-way analysis of variance, to calculate the p-values by the Dunnett's multiple range test. […] At each experiment, the EC50 value of ET-1 and the IC50 value of the Compound 1 were calculated by the Logistic regression analysis.

[2] = test system: PPC-1, hormone-refractory human prostate cancer cells; experiment: ET-1-induced cell growth ([3H]-thymidine incorporation) of PPC-1; format: cell-based
Method: PPC-1, hormone-refractory human prostate cancer cells, was used in these experiments (International Journal of Cancer,44,898-903,1989).
DNA synthesis level was measured as the index of cell growth. As DNA synthesis level, the incorporation of [^3H]-labeled thymidine was assayed. The cells were seeded at a density of 1×10^4 cells/well in a 96-well plate using no FCS-added culture medium and cultured for 5 days. Subsequently, vehicle or ET-1 was added to the plate and cultured for 24 hours. Continuously, [^3H-methyl]-thymidine was added at 0.5 μCi/well to the culture and pulse-labeling performed for 6 hours. Continuously, SDS solution to a final concentration of 0.2% was added for solubilization of the cell, and after solubilization the radioactivity of [^3H-methyl]-thymidine used for DNA synthesis was counted with a liquid scintillation counter. As a control, the count of a culture to which the vehicle was added was defined 100%, thus the percentage increase of DNA synthesis was calculated.
In this experiment, ET-1 and Compound 1 were within the concentration ranges of 10^−13 to 10^−6 M (10-fold dilution series) and 10^−10 to 3×10^−6 M (3-fold dilution series), respectively, as the final concentrations thereof. Compound 1 was added about 2 hr before the addition of ET-1.
The results are shown in the form of mean t standard error. The significant difference between groups was analyzed by one-way analysis of variance, and calculated the p-values by the Dunnett's multiple range test. The p-value below 5% was defined as statistically significant. The IC50 value of the Compound 1 were calculated by the Logistic regression analysis.

[3] = test system: MC3T3-E1, mouse osteoblast-like cells; experiment: ET-1-induced cell number increase in MC3T3-E1 (cell counting kit, WST-1); format: cell-based
Method: as §1
Cell number was counted by using a reagent solution of a cell counting kit (DOJINDO). The cells were seeded at a density of 1.0×10^4 cells/well in a 24-well plate using 0.5% FCS culture medium and cultured for one day. Subsequently, vehicle or ET-1 was added to the plate and cultured for 72 hours. Continuously, a reagent solution was added at 100 μl/well to the culture and incubated at 37° C. for 3 hours. After this reaction, 200-μl portions were transferred from the individual wells of the 24-well plate to a 96-well plate, to measure the absorbance (at a wave length of 405 nm and a reference wave length of 650 nm) with a plate reader. As a control, the count of a culture to which the vehicle was added was defined 100%, thus the percentage increase of cell number was calculated. […]
as §2

[4] = test system: mouse formalin-induced pain model; experiment: ET-1-induced enhancement of pain responses in mouse formalin-induced pain model; format: in vivo
Method: Suppressive effects of Compound 1 to the enhancement of pain responses induced by ET-1 in mouse formalin-induced pain model
Male ICR mice (age of 5 weeks; Nippon SLC) were used in these experiments.
The mice were placed in a cage for observation, to acclimate the mice to the environment for 5 minutes or longer; then, physiological saline of 20 μl was subcutaneously injected to the mouse left hind paws, while 0.7% formalin-containing physiological saline of 20 μl was subcutaneously injected to the mouse right hind paws. The duration of licking and biting reactions emerging immediately thereafter was counted every 5 minutes, for 40 minutes. After the termination of the counting, both the ankles were amputated and weighed. The reaction time immediately after formalin injection to 5 minutes later was defined as first phase; and the 30 minutes reaction time from 10 minutes after injection until 40 minutes later was defined in total as second phase, which were used as the indices of pain. Additionally, the edema calculated on the basis of the right foot weight minus the left foot weight (in mg) was used as an index of inflammatory reaction. Additionally, in all cases the licking reaction time was counted between 10:00 and 18:00.
0.7% formalin-containing physiological saline containing ET-1 at doses of 3, 10 and 30 pmol/paw was subcutaneously injected in the right hind paws to examine the action of ET-1 to enhance formalin-induced pain and edema.
Compound 1 (0.3 to 3 mg/kg) was orally administered at a dose of 1 ml/100 g. Sixty minutes after oral administration, 0.7% formalin-containing physiological saline containing ET-1 (10 pmol/paw) was subcutaneously injected in the right hind paws, to examine the effect of the Compound 1 on the ET-1-induced enhancements of formalin-induced pain and edema.
The results are shown in the form of mean±standard error. The significant difference between two groups was calculated the p-value by Students unpaired t-test. The significant difference between groups was analyzed by one-way analysis of variance, to calculate the p-values by the Dunnett's multiple range test. The p-value below 5% was defined as statistically significant.

[5] = 0.3, 1 and 3 mg/kg p.o., 60 min before ET-1 10 pmol/paw

Molecule | IC50 ([1]; ET-1 10^−8 M) [nM] | concentration above which the inhibitory effect was statistically significant ([2]; ET-1 10^−8 M) | IC50 ([2]; ET-1 10^−8 M, [3H]-thymidine incorporation, read-out: IC50 of ET-1-induced promotion of PPC-1 cell growth) [nM] | IC50 ([3]; ET-1 10^−9 M) [nM] | suppression of ET-1-induced enhancement of formalin-induced edema [4, 5] | suppression of ET-1-induced enhancement of formalin-induced pain, first phase [4, 5] | suppression of ET-1-induced enhancement of formalin-induced pain, second phase [4, 5] | EC50 ([1]; ET-1 10^−12 to 10^−6 M) [nM] | concentration above which the effect of ET-1 on [3H]-thymidine incorporation was statistically significant [2] | EC50 ([3]; ET-1 10^−12 to 10^−6 M, WST-1) [nM] | ET-1-induced enhancement of formalin-induced edema ([4]; ET-1 3, 10 and 30 pmol/paw with 0.7% formalin s.c. in hind paw) | ET-1-induced enhancement of formalin-induced pain, first phase ([4]; ET-1 3, 10 and 30 pmol/paw with 0.7% formalin s.c. in hind paw, 0-5 min) | ET-1-induced enhancement of formalin-induced pain, second phase ([4]; ET-1 3, 10 and 30 pmol/paw with 0.7% formalin s.c. in hind paw, 10-40 min)
COc1ccccc1Oc1c(NS(=O)(=O)C=Cc2ccccc2)nc(-c2ncccn2)nc1OC.[K] [Compound 1, N-[6-methoxy-5-(2-methoxyphenoxy)-2-(2-pyrimidinyl)-4-pyrimidinyl]-2-phenylethenesulfoneamide•potassium salt] | 10.2 | above 3×10^−7 M | 28 ± 9.8 | 9.54 | significantly suppressed | significantly suppressed | significantly suppressed |  |  |  |  |  | 
ET-1: endothelin; induces pain in humans and experimental animals; used as stimulus of pain, Ca2+ increase and cell growth [reference compound] |  |  |  |  |  |  |  | 7.39 | above 10^−8 M | 0.022 | significantly enhanced | significantly enhanced | significantly enhanced
